Values joined by “and” are separate entries in the source; they are usually repeats but may differ in a detail not shown here. Identical values can stand only once. Counter-ions that a name gives are not always drawn. Like-named read-outs stand apart in the source and are kept apart here.
Key:
DON contamination [1] = assay: Field test, mixed use (1): DON contamination concentration by HPLC-UV (Example 3); format: in vivo, Wheat (cultivar: Haruyutaka)
Experimental: Wheat (cultivar: Haruyutaka) was seeded on Apr. […] A suspension containing potassium phosphite and various fungicidal agents was prepared in a liquid mixture made up of a spreading agent (Gramine S: supplied from Hokkai Sankyo Co., Ltd.) and water. Using potassium phosphite as the compound A, 0.070% P2O5, and the 0.006 to 0.025% fungicidal agent for agri-horticulture for the wheat as the compound B, water solution containing them was prepared, and 100 L thereof per 10 a was sprayed on leaves in the following growth stages. That is, the first spray (June 24, heading date), the second (June 30, flowering stage), the third (July 9) were performed. The harvest was performed on August 12 (50 days after the heading date) by harvesting the wheat in 3.4 m^2 in each section. […] The DON contamination concentration was analyzed using HPLC-UV method in officially fixed methods shown by the Minister of Health, Labor and Welfare. Quantitative analysis was performed by repeating three times, and the quantitative value was an average value thereof.
Preparation of analysis sample solutions and the analysis procedure are briefly described.
To 50 g of the whole grain powder, 85% acetonitrile was added, vigorously agitated for 30 min, and subsequently sonicated for 10 min.
After eliminating impurities with filter paper, a filtrate was purified using a pretreatment column MultiSep #227 to make a solution for analysis.
The test solution for analysis was injected into high performance liquid chromatography, and DON was detected by ultraviolet rays.

Fusarium head blight [2] = format: in vivo, Wheat (cultivar: Haruyutaka)
DON contamination [3] = assay: Field test, mixed use (2): DON contamination concentration by ELISA (Example 4); format: in vivo, Wheat (cultivar: Haruyutaka)
Fusarium head blight [4] = format: in vivo, Wheat (cultivar: Haruyutaka); remark: listed apart in the source
Fusarium head blight [5] = format: in vivo, Wheat (cultivar: Haruyutaka); remark: listed apart in the source
DON contamination [6] = system: DON contamination; design: species or system Wheat (cultivar: Haruyutaka); settings: in vivo
DON contamination [7] = assay: Field test, single use: DON contamination concentration of wheat whole grain powder by ELISA (Example 1); settings: for DON concentration: 3 foliar sprays
Experimental: Wheat (cultivar: Haruyutaka) was seeded on Apr. 19, 2002, and cultivated according to a conventional cultivating standard (Hokkaido, Agriculture Department, 1995) to establish test sections with 6.75 m^2 per section (3 repeats). […] That is, the first spray (June 28, flowering date), the second spray (Jul. 8, 10 days after the flowering date, and the third spray (Jul. 18, 20 days after the flowering date) were performed. A conventional control for the purpose of controlling plant pathogens and plant insects was performed together. That is, the first [June 20, azoxystrobin (2000 times dilution)+fenitrothion (1000 times dilution)], the second [tebuconazole (June 28, 2000 times dilution)+sumithione (1000 times dilution)], and the third [July 8, propiconazole (2000 times dilution)+fenitrothion (1000 times dilution)], the forth [July 17, tebuconazole (2000 times dilution)+fenitrothion (1000 times dilution)] were performed. As controls, the test section where only the conventional control was given and the test section without any control were established. Harvest was performed by harvesting the wheat in 4 m^2 in the test sections on August 9 (52 days after the heading date). After the harvest, the wheat was applied on a rice grader with 2.2 mm opening of screen to make selected grains, which were then pulverized by a rapid pulverizer to make whole grain powder. The whole grain powder was used as a sample for analysis. The DON contamination concentration was analyzed by ELISA method using commercially available Rida Screen Fast Don supplied from r-Biopharm.
Preparation of analysis sample solutions and analysis procedure are briefly described.
To 5 g of the whole grain powder, 100 ml of water was added, and vigorously agitated for 10 min to make a DON extract solution.
The DON extract solution was centrifuged at high speed, and the supernatant was used for the ELISA analysis.
According to the method described on ELISA kit, various reagents were added, and subsequently an absorbance of each test solution was measured.
The DON concentration of each test solution was read out from a standard curve made using DON standard solutions.

[8] = system: Fusarium graminearum having DON production capacity; format: cell-based
Fusarium graminearum [9] = format: cell-based; settings: potassium phosphite 5.6%; for Ergosterol peak area value: 27° C.
[10] = system: Fusarium graminearum having DON production capacity; format: cell-based; remark: listed apart in the source
Fusarium graminearum [11] = format: cell-based; settings: for Ergosterol peak area: day 28 of culture
[12] = Metconazole 0.006% mixed with potassium phosphite 0.07% P2O5
[13] = Metconazole 0.006%, without potassium phosphite
[14] = Tebuconazole 0.020% mixed with potassium phosphite 0.07% P2O5
[15] = Tebuconazole 0.020%, without potassium phosphite
[16] = Tebuconazole 0.020% mixed with potassium phosphite 0.070% in P2O5
[17] = active ingredient A 0.120% (as P2O5), conventional control
[18] = Iminoctadine acetate 0.025% mixed with potassium phosphite 0.07% P2O5
[19] = Iminoctadine acetate 0.025%, without potassium phosphite
[20] = Kresoxim-methyl 0.021% mixed with potassium phosphite 0.07% P2O5
[21] = Kresoxim-methyl 0.021%, without potassium phosphite
[22] = Propiconazole 0.017% mixed with potassium phosphite 0.07% P2O5
[23] = Propiconazole 0.017%, without potassium phosphite
[24] = Propiconazole 0.017% mixed with potassium phosphite 0.070% in P2O5
[25] = Trifloxystrobin 0.025% mixed with potassium phosphite 0.070% in P2O5
[26] = Trifloxystrobin 0.025%, without potassium phosphite
[27] = sulfur 0.125% mixed with potassium phosphite 0.070% in P2O5
[28] = sulfur 0.125%, without potassium phosphite
[29] = active ingredient A 0.112% (as P2O5), conventional control
[30] = active ingredient A 0.038% (as P2O5), conventional control
[31] = active ingredient A 0.070% (as P2O5), conventional control
[32] = active ingredient A 0.112% (as P2O5), no control
[33] = potassium phosphite 0.07% P2O5 alone, no active ingredient B
[34] = potassium phosphite 0.070% in P2O5 alone, no active ingredient B

CC1(C)CCC(Cc2ccc(Cl)cc2)C1(O)Cn1cncn1 (racemic) [Metconazole, (1RS,5RS)-5-(4-chlorobenzyl)-2,2-dimethyl-1-(1-H-1,2,4-triazol-1-ylmethyl)cyclopentanol]
DON concentration (DON contamination [1]; [12]): 0.10 ppm | DON concentration (DON contamination [1]; [13]): 0.34 ppm | Incidence rate for panicles (Fusarium head blight [2]; [12]): 1.0% | Number of diseased spikelets/panicle (Fusarium head blight [2]; [12]): 0.010 | Incidence rate for panicles (Fusarium head blight [2]; [13]): 0.7% | Number of diseased spikelets/panicle (Fusarium head blight [2]; [13]): 0.007

CC(C)(C)C(O)(CCc1ccc(Cl)cc1)Cn1cncn1 (racemic) [Tebuconazole, (RS)-1-p-chlorophenyl-4,4-dimethyl-3-(1H-1,2,4-triazol-1-ylmethyl)pentan-3-ol]
DON concentration (DON contamination [1]; [14]): 0.38 ppm | DON concentration (DON contamination [1]; [15]): 0.39 ppm | Incidence rate for panicles (Fusarium head blight [2]; [14]): 1.0% | Number of diseased spikelets/panicle (Fusarium head blight [2]; [14]): 0.010 | DON concentration (DON contamination [3]; [16]): 0.08 ppm | DON concentration (DON contamination [3]; [15]): 0.16 ppm | Incidence rate for panicles (Fusarium head blight [4]; [16]): 5.0% | Number of diseased spikelets/panicle (Fusarium head blight [4]; [16]): 5.0

CCO[PH](=O)O [Fosetyl, aluminium salt (common name: fosetyl) of tris(ethylphosphonate)]
Incidence rate of Fusarium head blight for panicles (Fusarium head blight [5]; [17]): 0.0% | DON concentration diseased grain (DON contamination [6]): 11.0 ppm | DON concentration healthy grain (DON contamination [6]): 0.96 ppm | DON concentration (DON contamination [7]; [17]): 0.84 ppm

CC(=O)O.CC(=O)O.CC(=O)O.NC(N)=NCCCCCCCCNCCCCCCCCN=C(N)N [Iminoctadine acetate, 1,1′-iminodi(octamethylene)diguanidium=triacetate]
DON concentration (DON contamination [1]; [18]): 0.20 ppm | DON concentration (DON contamination [1]; [19]): 1.04 ppm | Incidence rate for panicles (Fusarium head blight [2]; [18]): 3.0% | Number of diseased spikelets/panicle (Fusarium head blight [2]; [18]): 0.030 | Incidence rate for panicles (Fusarium head blight [2]; [19]): 1.7% | Number of diseased spikelets/panicle (Fusarium head blight [2]; [19]): 0.017

CO/N=C(/C(=O)OC)c1ccccc1COc1ccccc1C [Kresoxim-methyl, methyl=(E)-2-methoxyimino[α-(o-tolyloxy)-o-tolyl]acetate]
DON concentration (DON contamination [1]; [20]): 0.51 ppm | DON concentration (DON contamination [1]; [21]): 1.05 ppm | Incidence rate for panicles (Fusarium head blight [2]; [20]): 0.7% | Number of diseased spikelets/panicle (Fusarium head blight [2]; [20]): 0.007 | Incidence rate for panicles (Fusarium head blight [2]; [21]): 0.3% | Number of diseased spikelets/panicle (Fusarium head blight [2]; [21]): 0.003

CCCC1COC(Cn2cncn2)(c2ccc(Cl)cc2Cl)O1 (stereo not drawn) [Propiconazole, 1-[2-(2,4-dichlorophenyl)-4-propyl-1,3-dioxolan-2-ylmethyl)-1H-1,2,4-triazole]
DON concentration (DON contamination [1]; [22]): 0.72 ppm | DON concentration (DON contamination [1]; [23]): 1.01 ppm | Incidence rate for panicles (Fusarium head blight [2]; [22]): 2.7% | Number of diseased spikelets/panicle (Fusarium head blight [2]; [22]): 0.027 | DON concentration (DON contamination [3]; [24]): 0.11 ppm | DON concentration (DON contamination [3]; [23]): 0.57 ppm | Incidence rate for panicles (Fusarium head blight [4]; [24]): 4.7% | Number of diseased spikelets/panicle (Fusarium head blight [4]; [24]): 5.0

CON=C(C(=O)OC)c1ccccc1CON=C(C)c1cccc(C(F)(F)F)c1 [Trifloxystrobin]
DON concentration (DON contamination [3]; [25]): 0.12 ppm | DON concentration (DON contamination [3]; [26]): 0.35 ppm | Incidence rate for panicles (Fusarium head blight [4]; [25]): 3.0% | Number of diseased spikelets/panicle (Fusarium head blight [4]; [25]): 3.0 | Incidence rate for panicles (Fusarium head blight [4]; [26]): 4.3% | Number of diseased spikelets/panicle (Fusarium head blight [4]; [26]): 5.0

S1SSSSSSS1 [sulfur]
DON concentration (DON contamination [3]; [27]): 0.43 ppm | DON concentration (DON contamination [3]; [28]): 1.85 ppm | Incidence rate for panicles (Fusarium head blight [4]; [27]): 8.7% | Number of diseased spikelets/panicle (Fusarium head blight [4]; [27]): 8.7 | Incidence rate for panicles (Fusarium head blight [4]; [28]): 8.7% | Number of diseased spikelets/panicle (Fusarium head blight [4]; [28]): 10.3

Iminoctadine albesilate
DON concentration (DON contamination [3]; Iminoctadine albesilate 0.030% mixed with potassium phosphite 0.070% in P2O5): 0.00 ppm | DON concentration (DON contamination [3]; Iminoctadine albesilate 0.030%, without potassium phosphite): 0.22 ppm | Incidence rate for panicles (Fusarium head blight [4]; in vivo): 7.3% and 2.7%

potassium phosphate
Incidence rate of Fusarium head blight for panicles (Fusarium head blight [5]; [29]): 0.0% | DON concentration diseased grain (DON contamination [6]): 86.9 ppm | DON concentration healthy grain (DON contamination [6]): 0.06 ppm | DON inhibitory effect (DON contamination [7]; Example 1, summary in text): low | DON concentration (DON contamination [7]; [29]): 4.66 ppm

potassium phosphite
Incidence rate of Fusarium head blight for panicles (Fusarium head blight [5]; [30]): 0.3% | Incidence rate of Fusarium head blight for panicles (Fusarium head blight [5]; [31]): 0.0% | Incidence rate of Fusarium head blight for panicles (Fusarium head blight [5]; [29]): 0.9% | Incidence rate of Fusarium head blight for panicles (Fusarium head blight [5]; [32]): 1.2% | DON concentration healthy grain (DON contamination [6]): 0.05 ppm and 0.04 ppm | DON contamination concentration in diseased grains (DON contamination [6]): decreased depending on the given concentration of potassium phosphite | DON concentration (DON contamination [1]; [33]): 0.77 ppm | Incidence rate for panicles (Fusarium head blight [2]; [33]): 4.3% | Number of diseased spikelets/panicle (Fusarium head blight [2]; [33]): 0.050 | DON concentration (DON contamination [3]; [34]): 0.57 ppm | DON contamination amount (DON contamination [3]; single agent treatment with the compound A): at a low level | Incidence rate for panicles (Fusarium head blight [4]; [34]): 10.3% | Number of diseased spikelets/panicle (Fusarium head blight [4]; [34]): 11.0 | DON [8]: ND. (key: ND.: ND means that the analytical value is less than the detection limit (0.222 ppm) of the ELISA analysis kit.) | DON production [8]: not detected | Ergosterol peak area value (Fusarium graminearum [9]; 7 days of culturing): 17952 | Ergosterol peak area value (Fusarium graminearum [9]; 14 days of culturing): 115921 | Ergosterol peak area value (Fusarium graminearum [9]; 21 days of culturing): 372377 | Ergosterol peak area value (Fusarium graminearum [9]; 28 days of culturing): 350972 | amount of ergosterol (indicator of the amount of fungi) (Fusarium graminearum [9]; course over culture): reached a plateau on the 21st day | DON amount [10]: significantly lower than that in the non-treatment | Ergosterol peak area (Fusarium graminearum [11]; treatment concentration 0.028%): 1810454 | Ergosterol peak area (Fusarium graminearum [11]; treatment concentration 0.056%): 1834861 | Ergosterol peak area (Fusarium graminearum [11]; treatment concentration 0.112%): 1769582 | Ergosterol peak area (Fusarium graminearum [11]; treatment concentration 0.560%): 1921693 | Ergosterol peak area (Fusarium graminearum [11]; treatment concentration 2.800%): 85891 | inhibitory effect on the fungal amount (Fusarium graminearum [11]; water solution of 0.056 to 0.560% potassium phosphite, compared to non-treatment): inhibitory effect on the fungal amount at a moderate degree | inhibitory effect on the fungal amount (Fusarium graminearum [11]; water solution of 2.800% potassium phosphite): remarkable inhibitory effect on the fungal amount | DON concentration (DON contamination [7]; [30]): 2.41 ppm | DON concentration (DON contamination [7]; [31]): 0.59 ppm | DON concentration (DON contamination [7]; [29]): 0.39 ppm | DON concentration (DON contamination [7]; [32]): 0.69 ppm
